Assay [1] deals with human platelet-rich plasma (PRP). Put plainly: PRP assay: inhibition of ADP-mediated platelet aggregation in vitro. Type of assay: cell-based. As to conditions: ADP-induced aggregation. How it is done:
The effect of testing the compound according to the invention on ADP-induced human platelet aggregation was assessed in a 96-well microtiter assay (see generally the procedures in Jantzen, H. M. et al. (1999) Thromb. Hemost. 81:111-117) or standard cuvette light transmittance aggregometry using either human platelet-rich plasma (PRP) or human washed platelets.
For preparation of human platelet-rich plasma for aggregation assays, human venous blood was collected from healthy, drug-free volunteers into 0.38% sodium citrate (0.013 M, pH 7.0 final). Platelet-rich plasma (PRP) is prepared by centrifugation of whole blood at 160×g for 20 minutes at room temperature. The PRP layer is removed, transferred to a new tube, and the platelet count is adjusted, if necessary, to achieve a platelet concentration of ˜3×10^8 platelets/ml using platelet-poor plasma (PPP). PPP is prepared by centrifugation of the remaining blood sample (after removal of PRP) for 20 minutes at 800×g. This preparation of PRP can subsequently be used for aggregation assays in either a 96-well plate or standard cuvette aggregometry.
For cuvette light transmittance aggregation assays, serial dilutions (1:3) of test compounds were prepared in 100% DMSO in a 96 well V-bottom plate (final DMSO concentration in the cuvette was 0.6%). The test compound (3 μl of serial dilutions in DMSO) was preincubated with PRP for 30-45 seconds prior to initiation of aggregation reactions, which were performed in a ChronoLog aggregometer by addition of agonist (5 or 10 μM ADP) to 490 μL of PRP at 37° C. In some cases, light transmittance aggregometry was performed using 490 μL of washed platelets (prepared as described above) at 37° C., and aggregation was initiated by addition of 5 μM ADP and 0.5 mg/ml human fibrinogen (American Diagnostics, Inc., Greenwich, Conn.). The aggregation reaction is recorded for ˜5 min, and maximum extent of aggregation is determined by the difference in extent of aggregation at baseline, compared to the maximum aggregation that occurs during the five minute period of the assay. Inhibition of aggregation was calculated as the maximum aggregation observed in the presence of inhibitor, compared to that in the absence of inhibitor. IC50s were derived by non-linear regression analysis using the Prism software (GraphPad, San Diego, Calif.).
Inhibition of ADP-dependent aggregation was also determined in 96-well flat-bottom microtiter plates using a microtiter plate shaker and plate reader similar to the procedure described by Frantantoni et al., Am. J. Clin. Pathol. 94, 613 (1990). All steps are performed at room temperature. For 96-well plate aggregation using platelet-rich plasma (PRP), the total reaction volume of 0.2 ml/well includes 180 μl of PRP (˜3×10^8 platelets/ml, see above), 6 μl of either serial dilution of test compounds in 20% DMSO or buffer (for control wells), and 10 μl of 20×ADP agonist solution (100 μM). The OD of the samples is then determined at 450 nm using a microtiter plate reader (Softmax, Molecular Devices, Menlo Park, Calif.) resulting in the 0 minute reading. The plates are then agitated for 5 min on a microtiter plate shaker and the 5 minute reading is obtained in the plate reader. Aggregation is calculated from the decrease of OD at 450 nm at t=5 minutes compared to t=0 minutes and is expressed as % of the decrease in the ADP control samples after correcting for changes in the unaggregated control samples. IC50s were derived by non-linear regression analysis.

A further assay addresses T1, P2Y12 receptor (Homo sapiens, UniProt Q9H244).
T1 construct: endogenous in cells; host or cells: human platelets (outdated from blood banks or fresh), apyrase-washed, whole
Put plainly: platelet ADP receptor binding assay (ARB): inhibition of [3H]2-MeS-ADP binding to platelets. The conditions noted are these: [3H]2-MeS-ADP binding to apyrase-washed human platelets. The gist of the method: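 Apyrase-washed human platelets (1×10^8 per well) were preincubated 5 min with serial compound dilutions in Hepes-Tyrode's/0.1% BSA/0.6% DMSO, then incubated 15 min at room temperature with 1 nM [3H]2-MeS-ADP. Filter-bound radioactivity gave specific binding (nonspecific: 10 μM 2-MeS-ADP), and IC50s came from non-linear regression.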

The structures appear in SMILES notation.

T1 sequence (Q9H244 whole entry): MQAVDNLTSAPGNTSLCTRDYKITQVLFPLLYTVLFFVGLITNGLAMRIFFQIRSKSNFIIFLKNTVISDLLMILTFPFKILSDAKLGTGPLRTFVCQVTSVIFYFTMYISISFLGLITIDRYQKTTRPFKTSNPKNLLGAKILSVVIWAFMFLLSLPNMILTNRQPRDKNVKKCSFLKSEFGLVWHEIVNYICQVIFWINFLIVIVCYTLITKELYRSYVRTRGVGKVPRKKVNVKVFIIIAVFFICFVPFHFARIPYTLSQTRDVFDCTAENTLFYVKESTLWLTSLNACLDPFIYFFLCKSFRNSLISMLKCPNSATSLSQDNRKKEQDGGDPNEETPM

Usually IC50 stands for the concentration needed to halve the response being measured. A low value points to inhibition by little substance. Consider `O=C(NCc1ccc(Cl)s1)c1ccc(-n2c(=O)[nH]c3cc(NCc4ccc(F)cc4)ccc3c2=O)cc1` [Compound 1, N-((5-chlorothiophen-2-yl)methyl)-4-(7-(4-fluorobenzylamino)-2,4-dioxo-1,2-dihydroquinazolin-3(4H)-yl)benzamide], for which the IC50 in assay [1] (Homo sapiens, Platelet) is > 30000 nM; on P2Y12 receptor it was 50 to 500 nM. Taken in the same sequence, the figures for `O=C(NC(C(=O)O)c1cccs1)c1ccc(-n2c(=O)[nH]c3cc(NCc4ccc(F)cc4)ccc3c2=O)cc1` (stereo not drawn) [Compound 2, 2-(4-(7-(4-fluorobenzylamino)-2,4-dioxo-1,2-dihydroquinazolin-3(4H)-yl)benzamido)-2-(thiophen-2-yl)acetic acid] were > 30000 nM and 50 to 500 nM.

On to `CNc1cc2[nH]c(=O)n(-c3ccc(C(=O)NC(C(=O)O)c4ccc(Cl)s4)cc3)c(=O)c2cc1F` (stereo not drawn) [Compound 5, 2-(5-chlorothiophen-2-yl)-2-(4-(6-fluoro-7-(methylamino)-2,4-dioxo-1,2-dihydroquinazolin-3(4H)-yl)benzamido)acetic acid], for which the IC50 in assay [1] was 10000 to 30000 nM; at P2Y12 receptor, < 50 nM. Regarding `CNc1cc2[nH]c(=O)n(-c3ccc(C(=O)N(CC(=O)O)Cc4ccc(Cl)s4)cc3)c(=O)c2cc1F` [Compound 6, 2-(N-((5-chlorothiophen-2-yl)methyl)-4-(6-fluoro-7-(methylamino)-2,4-dioxo-1,2-dihydroquinazolin-3(4H)-yl)benzamido)acetic acid], the IC50 in assay [1] (Homo sapiens, Platelet) is > 30000 nM; on P2Y12 receptor, 50 to 500 nM. The matching figures for `CNc1cc2[nH]c(=O)n(-c3ccc(C(=O)NC(c4nnn[nH]4)c4ccc(Cl)s4)cc3)c(=O)c2cc1F` (stereo not drawn) [Compound 7, N-((5-chlorothiophen-2-yl)(1H-tetrazol-5yl)methyl)-4-(6-fluoro-7-(methylamino)-2,4-dioxo-1,2-dihydroquinazolin-3(4H)-yl)benzamide]: < 10000 nM and < 50 nM. As to `CNc1cc2[nH]c(=O)n(-c3ccc(C(=O)NC(c4cccc(Cl)c4)c4nnn[nH]4)cc3)c(=O)c2cc1F` (stereo not drawn) [Compound 11, N-((3-chlorophenyl)(1H-tetrazol-5-yl)methyl)-4-(6-fluoro-7-(methylamino)-2,4-dioxo-1,2-dihydroquinazolin-3(4H)-yl)benzamide], the 50% inhibitory concentration (IC50) is > 30000 nM in assay [1] (Homo sapiens, Platelet) and 50 to 500 nM at P2Y12 receptor. `CNc1cc2[nH]c(=O)n(-c3ccc(C(=O)NC(C(=O)O)c4ccc(Cl)s4)cc3)c(=O)c2cc1F` (stereo not drawn) [Compound 13, 2-(5-chlorothiophen-2-yl)-2-(4-(6-fluoro-7-(methylamino)-2,4-dioxo-1,2-dihydroquinazolin-3(4H)-yl)benzamido)acetic acid]: the IC50 in assay [1] (Homo sapiens, Platelet) was < 10000 nM; on P2Y12 receptor, 50 to 500 nM. For the compound `CNc1cc2[nH]c(=O)n(-c3ccc(C(=O)NC(C(=O)O)c4ccc(C)s4)cc3)c(=O)c2cc1F` (stereo not drawn) [Compound 19, 2-(4-(6-fluoro-7-(methylamino)-2,4-dioxo-1,2-dihydroquinazolin-3(4H)-yl)benzamido)-2-(5-methylthiophen-2-yl)acetic acid], the IC50 was < 10000 nM in assay [1] (Homo sapiens, Platelet) and 50 to 500 nM at P2Y12 receptor. Take `CNc1cc2[nH]c(=O)n(-c3ccc(C(=O)NC(c4noc(=O)[nH]4)c4ccc(Cl)s4)cc3)c(=O)c2cc1F` (stereo not drawn) [Compound 21, N-((5-chlorothiophen-2-yl)(5-oxo-4,5-dihydro-1,2,4-oxadiazol-3-yl)methyl)-4-(6-fluoro-7-(methylamino)-2,4-dioxo-1,2-dihydroquinazolin-3(4H)-yl)benzamide]: the concentration for half-maximal inhibition (IC50) is < 10000 nM in assay [1] (Homo sapiens, Platelet) and < 50 nM at P2Y12 receptor. Turning to `CNc1cc2[nH]c(=O)n(-c3ccc(C(=O)NC(CC(=O)O)c4ccc(Cl)s4)cc3)c(=O)c2cc1F` (stereo not drawn) [Compound 27, 3-(5-chlorothiophen-2-yl)-3-(4-(6-fluoro-7-(methylamino)-2,4-dioxo-1,2-dihydroquinazolin-3(4H)-yl)benzamido)propanoic acid], the IC50 was > 30000 nM in assay [1] (Homo sapiens, Platelet) and 50 to 500 nM at P2Y12 receptor. At P2Y12 receptor, `CNc1cc2[nH]c(=O)n(-c3ccc(C(=O)NC(C(=O)O)c4ccc(Cl)s4)s3)c(=O)c2cc1F` (stereo not drawn) [Compound 112, 2-(5-chlorothiophen-2-yl)-2-(5-(6-fluoro-7-(methylamino)-2,4-dioxo-1,2-dihydroquinazolin-3(4H)-yl)thiophene-2-carboxamido)acetic acid] displayed an IC50 of 50 to 500 nM.

`CNc1cc2[nH]c(=O)n(-c3cc(C(=O)NC(C(=O)O)c4ccc(Cl)s4)cs3)c(=O)c2cc1F` (stereo not drawn) [Compound 113, 2-(5-chlorothiophen-2-yl)-2-(5-(6-fluoro-7-(methylamino)-2,4-dioxo-1,2-dihydroquinazolin-3(4H)-yl)thiophene-3-carboxamido)acetic acid]: the IC50 at P2Y12 receptor is > 500 nM. For the compound `CNc1cc2c(cc1F)C(=O)N(c1ccc(CC(=O)NC(C(=O)O)c3ccc(Cl)s3)cc1)CO2` (stereo not drawn) [Compound 114, 2-(5-chlorothiophen-2-yl)-2-(2-(4-(6-fluoro-7-(methylamino)-4-oxo-2H-benzo[e][1,3]oxazin-3(4H)-yl)phenyl)acetamido)acetic acid], the IC50 at P2Y12 receptor was > 500 nM. Same read-out and setting: with `CNc1cc2ncn(-c3ccc(C(=O)NC(C(=O)O)c4ccc(Cl)s4)cc3)c(=O)c2cc1F` (stereo not drawn) [Compound 116, 2-(5-chlorothiophen-2-yl)-2-(4-(6-fluoro-7-(methylamino)-4-oxoquinazolin-3(4H)-yl)benzamido)acetic acid] the figure was 50 to 500 nM; with `CNc1cc2cnn(-c3ccc(C(=O)NC(C(=O)O)c4ccc(Cl)s4)cc3)c(=O)c2cc1F` (stereo not drawn) [Compound 117, 2-(5-chlorothiophen-2-yl)-2-(4-(7-fluoro-6-(methylamino)-1-oxophthalazin-2(1H)-yl)benzamido)acetic acid], 50 to 500 nM; with `CNc1cc2c(cc1F)C(=O)N(c1ccc(CC(=O)NC(C(=O)OC)c3ccc(Cl)s3)cc1)CO2` (stereo not drawn) [Compound 118, methyl 2-(5-chlorothiophen-2-yl)-2-(2-(4-(6-fluoro-7-(methylamino)-4-oxo-2H-benzo[e][1,3]oxazin-3(4H)-yl)phenyl)acetamido)acetate], 50 to 500 nM.

In the case of `CCc1ccc2c(c1)CCN(c1ccc(C(=O)NC(C(=O)O)c3ccc(Cl)s3)cc1)C2=O` (stereo not drawn) [Compound 119, 2-(5-chlorothiophen-2-yl)-2-(4-(6-ethyl-1-oxo-3,4-dihydroisoquinolin-2(1H)-yl)benzamido)acetic acid], the IC50 on P2Y12 receptor was > 500 nM. The same measure, in the same setting: under `CNc1cc2c(cc1F)C(=O)N(c1ccc(CC(=O)NC(C(=O)N(C)C)c3ccc(Cl)s3)cc1)CO2` (stereo not drawn) [Compound 120, 2-(5-chlorothiophen-2-yl)-2-(2-(4-(6-fluoro-7-(methylamino)-4-oxo-2H-benzo[e][1,3]oxazin-3(4H)-yl)phenyl)acetamido)-N,N-dimethylacetamide] stands > 500 nM; under `CNc1cc2c(cc1F)C(=O)N(c1ccc(CC(=O)NC(C(=O)N3CCCC3)c3ccc(Cl)s3)cc1)CO2` (stereo not drawn) [Compound 121, N-(1-(5-chlorothiophen-2-yl)-2-oxo-2-(pyrrolidin-1-yl)ethyl)-2-(4-(6-fluoro-7-(methylamino)-4-oxo-2H-benzo[e][1,3]oxazin-3(4H)-yl)phenyl)acetamide], > 500 nM. On the same count and under the same terms, under `CNc1cc2c(cc1F)C(=O)N(c1ccc(CC(=O)NC(C(N)=O)c3ccc(Cl)s3)cc1)CO2` (stereo not drawn) [Compound 122, N-(2-amino-1-(5-chlorothiophen-2-yl)-2-oxoethyl)-2-(4-(6-fluoro-7-(methylamino)-4-oxo-2H-benzo[e][1,3]oxazin-3(4H)-yl)phenyl)acetamide] stands 50 to 500 nM.

The values above are taken from patent US7834023B2 (Portola Pharmaceuticals, Inc., priority 2006, dated 2010).
